{"source": "patent US8263736B2", "about": "“Compounds and their effects on feeding behaviour” (Imperial Innovations Limited, priority 2006, dated 2012)", "key": {"[1]": {"test_system": "Male C57BL/6 mice", "assay": "Food intake in fasted mice after a single intraperitoneal injection (Example 1, 3 different PYY analogues)", "assay_type": "in vivo", "details": "single i.p. injection", "experimental": "(§1) Male C57BL/6 mice (20-30 g) were used for all mouse experiments. Mice were individually housed in IVC cages. Animals were randomised by weight and fasted overnight for 16 hrs before intraperitoneal injection at 9 am. Food intake was measured at 1, 2, 3, 4, 6, 8 and 24 hours post injection. All peptide solutions were prepared freshly the morning of the study and injected as 100 ul. All statistics are calculated using a one-way ANOVA with Dunnett's post-test or one-way ANOVA with Bonferroni post-test.\n(§2) A control of saline was used."}, "[2]": {"test_system": "Male C57BL/6 mice", "assay": "Food intake in fasted mice, dose response experiment for PYY3-36Lys12Lauryl (Example 2)", "assay_type": "in vivo", "experimental": "as §1, §2"}}, "data": [{"substance": "PYY3-36Lys12Lauryl: PYY3-36 with the residue at position 12 replaced with a lysine residue coupled to a lauroyl group, SEQ ID NO: 14", "values": [{"measurement": "overall reduction in cumulative food intake versus saline control", "setting": "[1]; 120 nmol/kg, 24 hour period, fasted mice", "value": 6.1, "unit": "%"}, {"measurement": "persistence of effect on food intake compared with saline, PYY3-36 (30 nmol/kg) and PYY3-36Lys12 (60 and 120 nmol/kg)", "setting": "[1]", "value": "most sustained effect"}, {"measurement": "onset of food intake reduction compared with 60 nmol/kg native PYY3-36", "setting": "[2]; 240 nmol/kg, mice", "value": "slower onset of food intake reduction"}, {"measurement": "persistence of food intake reduction compared with 60 nmol/kg native PYY3-36", "setting": "[2]; 240 nmol/kg, mice", "value": "greater persistence of effect"}, {"measurement": "food consumed in the first, second and third hour: relation to dose", "setting": "[2]; 60, 120 and 240 nmol/kg, single i.p. injection, 240 greater effect than 120, both greater than 60 nmol/kg", "value": "does-response relationship"}, {"measurement": "time at which food intake (in a given time period) becomes greater than in saline control mice", "setting": "[2]; single i.p. injection, PYY3-36Lys12Lauryl 60, 120, 240 nmol/kg, PYY3-36 30 nmol/kg, FIG. 5", "value": "around 6 hours"}]}]}
